In paper PMC9640990 (Frontiers in Pharmacology, 2022):

How the values were obtained:
[1] = rats; approximately
[2] = 1990, cited from earlier work
[3] = test system: BCRP mRNA; assay: BCRP mRNA expression in Caco-2 cells (qRT-PCR); assay type: cell-based; settings: 48 h pretreatment, bosentan 20 μM, GA 50 μM, PCA 50 μM, PCE 100 mg/ml
Method: (§2) After the incubation period, cells were harvested from the Transwell inserts for RNA extraction. […] Real-time quantitative PCR (qRT-PCR) was performed on an ABI Prism 7900HT Sequence Detection System (Applied Biosystems, Foster City, CA, United States) for the analysis of MDR1 and BCRP genes. Primers of housekeeping gene β-actin was used as internal controls. […] The relative gene expression levels were determined using the comparative CT method (ΔΔCT method). The cut-off CT was set at 35 cycles for all analyses. An arbitrary classification system was assigned to the data, designating relative expression levels >2 as high mRNA expression, levels between 2 and 1 as moderate mRNA expression, levels between 1 and 0.1 as low mRNA expression and levels <0.1 as unexpressed.

[4] = test system: MDR1 mRNA; assay: MDR1 mRNA expression in Caco-2 cells (qRT-PCR); assay type: cell-based; settings: 48 h pretreatment, bosentan 20 μM, GA 50 μM, PCA 50 μM, PCE 100 mg/ml
Method: as §2

[5] = target: hOAT3 (Homo sapiens, UniProt Q8TCC7); assay: Inhibition of hOAT3-mediated uptake of 3H-ES in hOAT3-MDCK cells; assay type: cell-based; settings: hOAT3-MDCK cells
Chain of hOAT3 (Q8TCC7 whole entry): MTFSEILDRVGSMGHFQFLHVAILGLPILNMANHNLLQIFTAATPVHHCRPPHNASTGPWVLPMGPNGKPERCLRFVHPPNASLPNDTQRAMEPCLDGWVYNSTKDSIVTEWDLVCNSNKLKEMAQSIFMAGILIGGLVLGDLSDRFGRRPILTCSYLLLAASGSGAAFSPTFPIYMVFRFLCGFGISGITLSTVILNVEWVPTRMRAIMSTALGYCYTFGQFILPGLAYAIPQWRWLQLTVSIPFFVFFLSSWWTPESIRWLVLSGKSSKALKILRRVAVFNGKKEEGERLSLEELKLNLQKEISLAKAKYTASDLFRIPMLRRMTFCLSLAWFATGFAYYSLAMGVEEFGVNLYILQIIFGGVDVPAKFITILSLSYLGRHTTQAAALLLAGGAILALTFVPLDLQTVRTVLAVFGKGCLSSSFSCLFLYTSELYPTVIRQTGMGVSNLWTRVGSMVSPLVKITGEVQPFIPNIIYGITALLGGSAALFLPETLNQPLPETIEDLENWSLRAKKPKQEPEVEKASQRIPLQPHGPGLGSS
Excerpt: (§1) Considering the relative exposure characteristics, GA and PCA were selected as PK-marker and Q-marker components of PCE in previous studies ([Ma et al., 2015]; [Ma et al., 2016]; [Li et al., 2021b]). In this study, we investigated the concentration-dependent inhibitions of GA and PCA on multiple transporters, including OAT1, OAT3, OCT2, MDR1, and BCRP. Stably expressing cell lines of hOAT1-MDCK, hOAT3-MDCK, hOCT2-S2, hMDR1-MDCK, hBCRP-MDCK, and their mock cells were obtained from Japan Fuji Biomedical Co., Ltd. The cells were maintained in DMEM (Sigma) supplemented with 10% FCS, 1% non-essential amino acids (Sigma), and 2% L-glutamine. The medium for the Transwell® plates (Corning Costar, Cambridge, MA, United States) was supplemented with 0.1% gentamicin. Membrane filters were placed in a 12 mm well with 1.5 and 0.5 ml of culture medium in the basolateral and apical compartments, respectively. Cells were cultured at 37°C in an atmosphere of 5% CO2. The inhibition experiments were adapted from previous methods with minor modifications ([Li et al., 2021a]; [2021b]).
Briefly, the hOAT1-MDCK, hOAT3-MDCK, and hOCT2-S2 cells were trypsinized and suspended in the culture medium to provide a density of 1.5 × 10^5 cells/ml. After incubating for 48 h, the cells were washed twice with preheated DPBS and then pre-incubated with DPBS for 10 min at 37°C. 500 µl of DPBS containing probe substrates was added to initiate the uptake in the presence or absence of GA, PCA or positive inhibitors. The hMDR1-MDCK and hBCRP-MDCK cells were suspended at a density of 4.0 × 10^5 cells/ml. After cultivation for 7 days, cells were washed twice and equilibrated for 30 min at 37°C with the pre-warmed HBSS buffer. […] The radioactive intensity of ^14C-PAH, ^3H-ES, and ^14C-TEA was measured using a Tri-Carb 2910TR scintillator (PerkinElmer, United States). Fluorescence was measured at 485 nm (excitation) and 546 nm (emission) for rhodamine 123, and 425 nm (excitation) and 528 nm (emission) for lucifer yellow. IC50 values were determined by employing GraphPad Prism 9.

[6] = target: T1, hOCT2 (Homo sapiens, UniProt O15244); assay: Inhibition of hOCT2-mediated uptake of 14C-TEA in hOCT2-S2 cells; assay type: cell-based
T1 construct: host or cells: S2
T1 sequence (O15244 1-555): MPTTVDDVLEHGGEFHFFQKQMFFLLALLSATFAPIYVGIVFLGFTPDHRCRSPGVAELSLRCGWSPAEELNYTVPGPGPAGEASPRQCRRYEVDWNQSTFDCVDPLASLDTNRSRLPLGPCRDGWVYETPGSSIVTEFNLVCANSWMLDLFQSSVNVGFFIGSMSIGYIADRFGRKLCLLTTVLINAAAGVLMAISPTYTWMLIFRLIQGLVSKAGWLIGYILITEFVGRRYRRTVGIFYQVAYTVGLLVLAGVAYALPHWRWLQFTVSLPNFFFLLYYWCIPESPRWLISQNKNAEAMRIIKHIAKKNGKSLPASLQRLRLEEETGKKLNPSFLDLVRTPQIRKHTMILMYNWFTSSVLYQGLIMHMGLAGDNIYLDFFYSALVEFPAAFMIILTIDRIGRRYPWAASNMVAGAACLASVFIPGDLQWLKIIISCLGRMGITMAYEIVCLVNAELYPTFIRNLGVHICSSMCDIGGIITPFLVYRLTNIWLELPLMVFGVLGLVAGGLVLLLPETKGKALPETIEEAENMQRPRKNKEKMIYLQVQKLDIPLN
Excerpt: as §1, with “Membrane filters were placed in a 12 mm well with 1.5 and 0.5 ml of culture medium in the basolateral and apical compartments, respectively. Cells were cultured at 37°C in an atmosphere of 5% CO2. The inhibition experiments were adapted from previous methods with minor modifications ([Li et al., 2021a]; [2021b]).” left out
Briefly, the hOAT1-MDCK, hOAT3-MDCK, and hOCT2-S2 cells were trypsinized and suspended in the culture medium to provide a density of 1.5 × 10^5 cells/ml. […] The radioactive intensity of ^14C-PAH, ^3H-ES, and ^14C-TEA was measured using a Tri-Carb 2910TR scintillator (PerkinElmer, United States). Fluorescence was measured at 485 nm (excitation) and 546 nm (emission) for rhodamine 123, and 425 nm (excitation) and 528 nm (emission) for lucifer yellow. IC50 values were determined by employing GraphPad Prism 9.

## O=C(O)c1cn(C2CC2)c2cc(N3CCNCC3)c(F)cc2c1=O [CIP, ciprofloxacin]
[1]
  reduction of circulating CIP by concurrent use of PCE: 40%–50%
[2]; ref Rohwedder et al., Haslam et al., 2011
  share of an intravenous dose eliminated into the intestine: Approximately 20%
[2]; ref Vance-Bryan et al.
  excreted in unchanged form into the urine: Approximately 60%

## COc1ccccc1Oc1c(NS(=O)(=O)c2ccc(C(C)(C)C)cc2)nc(-c2ncccn2)nc1OCCO [bosentan, Bosentan]
[3]
  increase of BCRP mRNA expression: 4.31 fold
[4]
  increase of MDR1 (P-gp) mRNA expression: 7.36 fold

## CN/C(=N/CCSCc1nc[nH]c1C)NC#N [cimetidine]
[5]
  effect of positive inhibitor on hOAT3: Significant inhibitory effects

## CO[C@H]1/C=C/O[C@@]2(C)Oc3c(C)c(O)c4c(O)c(c(/C=N/N5CCN(C)CC5)c(O)c4c3C2=O)NC(=O)/C(C)=C\C=C\[C@H](C)[C@H](O)[C@@H](C)[C@@H](O)[C@@H](C)[C@H](OC(C)=O)[C@@H]1C [rifampicin]
[6]
  effect of positive inhibitor on hOCT2: Significant inhibitory effects
